The source of these data is ChEMBL document CHEMBL1201862, “PubChem BioAssay data set” (2004).

Experiment in all cases: growth of human tumour cells (NCI), 48 h
Test [1] has as its system A498.
In test [2] the test system is CAKI-1.
Test [3] deals with HCC 2998.
In test [4] the test system is HOP-62.
In test [5] the test system is KM12.
Test [6] concerns LOX IMVI.
The test system of test [7] is M14.
Test [8] has as its system NCI-H226.
Test [9] relates to OVCAR-5.
For test [10], the system named is OVCAR-8.
Test [11] concerns RPMI-8226.
The test system of test [12] is SK-MEL-28.
Test [13] has as its system SK-MEL-2.
Test [14] relates to SK-MEL-5.
For test [15], the system named is SK-OV-3.
The subject of test [16] is SNB-75.
Test [17] deals with SW-620.
The subject of test [18] is T47D.
Test [19] concerns U-251.
Test [20] concerns UACC-257.

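Following 48 hours of exposure in 96-well plates, responses at five concentrations were used to interpolate endpoints linearly. At the GI50, growth is halved.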 Active and inactive are the calls of the source. Cut-off read from the data, not from the text of the source: active = GI50 up to about 1.1 µM and inactive = higher.

Consider `COc1ccc(CN(CCc2c[nH]c3ccccc23)Cc2ccc(OC)cc2)cc1`, for which the GI50 in [1] was 4.24 µM (inactive); in [2] it was 3.94 µM (inactive); in test [3], 3.34 µM (inactive); in [4], 3.01 µM (inactive); in test [5] it was 2.67 µM (inactive); in [6] it was 3.15 µM (inactive). Also, the GI50 in test [7] is 2.8 µM (inactive); in [8], 1.37 µM (inactive); in test [9] it was 3.64 µM (inactive); in [10], 3.95 µM (inactive); in test [11] it was 3.82 µM (inactive); in test [12], 3.86 µM (inactive). Besides, the GI50 is 3.9 µM (inactive) in test [13]; 2.77 µM (inactive) in test [14]; 5.46 µM (inactive) in [15]; 6.25 µM (inactive) in test [16]; 4.19 µM (inactive) in test [17]; 1.33 µM (inactive) in test [18]. Further, the GI50 in test [19] is 5.81 µM (inactive); in test [20], 3.8 µM (inactive).

For `O=C1c2cc([N+](=O)[O-])sc2C(=O)c2ccsc21`, the GI50 in test [1] is 2.14 µM (inactive); in [2], 1.24 µM (inactive); in test [3], 0.52 µM (active); in [4] it was 0.227 µM (active); in test [5], 0.407 µM (active); in [6] it was 0.0687 µM (active). For the same compound, the GI50 is 0.258 µM (active) in [7]; 1.36 µM (inactive) in test [8]; 1.69 µM (inactive) in test [9]; 0.465 µM (active) in test [10]; 0.206 µM (active) in [11]; 0.283 µM (active) in test [12]. Besides, the GI50 in test [13] is 1.06 µM (active); in test [14] it was 0.17 µM (active); in [15] it was 1.58 µM (inactive); in test [16], 1.4 µM (inactive); in test [17] it was 0.245 µM (active); in test [18], 0.478 µM (active). Also, the figures for the GI50 in test [19] and in [20] were 0.203 µM (active) and 0.242 µM (active), respectively.

With `CCCCCC(=O)OC[n+]1ccc(-c2c(COC(=O)NC(C)C)c(COC(=O)NC(C)C)c3n2CCC3)cc1`, the GI50 in test [1] was > 100 µM (inactive); in test [2], 49.5 µM (inactive); in test [3], > 100 µM (inactive); in test [4], > 100 µM (inactive); in test [5], > 100 µM (inactive); in test [6] it was > 100 µM (inactive). The GI50 in test [7], in [8], in [9], in [10], in test [11] and in test [12] was > 100 µM (inactive) throughout. The GI50 in [13], in [14], in test [15], in [16], in test [17] and in test [18] was > 100 µM (inactive) throughout. In addition, the GI50 in [19] and in [20] was > 100 µM (inactive) in each case.

For `Cc1ccc(S(=O)(=O)N2CCC(=O)c3cc(Br)ccc32)cc1`, the GI50 in [1] was 15 µM (inactive); in [2], 11.8 µM (inactive); in test [3] it was 24 µM (inactive); in test [4], 7.16 µM (inactive); in test [5], 3.24 µM (inactive); in test [6], 6.52 µM (inactive). Besides, the GI50 in test [7] was 5.06 µM (inactive); in test [8] it was 37.7 µM (inactive); in test [9] it was 42.4 µM (inactive); in [10], 14.4 µM (inactive); in test [11], 12.2 µM (inactive); in [12], 24.7 µM (inactive). Also, the GI50 in test [13] is 10.3 µM (inactive); in test [14], 7.05 µM (inactive); in test [15], 20.5 µM (inactive); in test [16], 14.6 µM (inactive); in test [17], 6.04 µM (inactive); in test [18], 23.1 µM (inactive). Further, the GI50 is 3.72 µM (inactive) in test [19] and 6.95 µM (inactive) in [20].

For `CC(C)(C)[Si](C)(C)OCC1OC(n2cnc3c(=O)[nH]cnc32)CC1O` (stereo not given), the GI50 in [1], in test [2], in test [3], in test [4], in [5] and in test [6] was > 100 µM (inactive) in each case. Further, the GI50 in test [7], in test [8], in test [9], in test [10], in test [11] and in [12] was > 100 µM (inactive) in each case. Also, the GI50 was > 100 µM (inactive) in test [13]; 60.5 µM (inactive) in [14]; > 100 µM (inactive) in test [15]; 20.8 µM (inactive) in test [16]; > 100 µM (inactive) in [17]; > 100 µM (inactive) in test [18]. In addition, the GI50 in [19] and in test [20] was > 100 µM (inactive) each time.

In the case of `COC(=O)c1c2c(cc3c1CC1(Cc4cc5c(cc4C1=O)CCC5)C3)CCC2` (stereo not given), the GI50 was 34.4 µM (inactive) in test [1]; 21 µM (inactive) in test [2]; 63 µM (inactive) in [3]; 34.3 µM (inactive) in test [4]; 38.7 µM (inactive) in [5]; 7.18 µM (inactive) in [6]. The GI50 is 90.4 µM (inactive) in test [7]; 60.3 µM (inactive) in test [8]; > 100 µM (inactive) in test [9]; 27.6 µM (inactive) in test [10]; 6.79 µM (inactive) in [11]; 63 µM (inactive) in [12]. The GI50 was > 100 µM (inactive) in test [13]; 10.5 µM (inactive) in [14]; 21.9 µM (inactive) in test [15]; 14.3 µM (inactive) in test [16]; 20.8 µM (inactive) in [17]; 59 µM (inactive) in [18]. Moreover, the results for the GI50 in test [19] and in [20] were 83.9 µM (inactive) and 17.5 µM (inactive), respectively.

For `CCN(CC)CCNc1ccc2ncn3c4ccc(O)cc4c(=O)c1c23`, the GI50 was 1.12 µM (inactive) in test [1]; 0.0649 µM (active) in test [2]; 2.51 µM (inactive) in [3]; 0.141 µM (active) in test [4]; 1.21 µM (inactive) in test [5]; 0.327 µM (active) in test [6]. Moreover, the GI50 in test [7] was 1.28 µM (inactive); in test [8], 0.04 µM (active); in [9] it was 2.37 µM (inactive); in test [10] it was 0.561 µM (active); in [11], 0.267 µM (active); in test [12], 7.76 µM (inactive). Also, the GI50 in test [13] was 6.78 µM (inactive); in [14] it was 0.289 µM (active); in [15] it was 0.785 µM (active); in test [16], 0.652 µM (active); in test [17], 0.216 µM (active); in test [18], 12.2 µM (inactive). For the same compound, the values for the GI50 in test [19] and in test [20] were 0.193 µM (active) and 6.62 µM (inactive), respectively.

With `COC(=O)C(CCC1CC(OC)N(C(=O)OCc2ccccc2)C1)/N=C/c1ccccc1` (stereo not given), the GI50 in [1] is > 100 µM (inactive); in test [2], > 100 µM (inactive); in [3], 31.6 µM (inactive); in test [4], > 100 µM (inactive); in [5], 94.8 µM (inactive); in [6], > 100 µM (inactive). Besides, the GI50 is 54.7 µM (inactive) in [7]; > 100 µM (inactive) in test [8]; > 100 µM (inactive) in [9]; 96.2 µM (inactive) in test [10]; 27.6 µM (inactive) in test [11]; > 100 µM (inactive) in test [12]. In addition, the GI50 is 26.1 µM (inactive) in test [13]; 29.2 µM (inactive) in test [14]; > 100 µM (inactive) in test [15]; > 100 µM (inactive) in test [16]; > 100 µM (inactive) in test [17]; 40.5 µM (inactive) in [18]. The GI50 in [19] is > 100 µM (inactive); in test [20], 31.2 µM (inactive).

Regarding `COc1ccc2nc3c([N+](=O)[O-])ccc4c3c(c2c1)N(CCCN(C)C)C(=S)N4CCCN(C)C`, the GI50 in test [1] was 17.7 µM (inactive); in test [2], 14.5 µM (inactive); in test [3] it was 2.9 µM (inactive); in test [4], 5.19 µM (inactive); in [5], 2.5 µM (inactive); in test [6], 3.28 µM (inactive). The GI50 in [7] is 4 µM (inactive); in [8], 7.48 µM (inactive); in [9], 14.6 µM (inactive); in [10], 5.79 µM (inactive); in [11] it was 5.51 µM (inactive); in test [12], 18.1 µM (inactive). The GI50 in [13] was 16.1 µM (inactive); in test [14], 4.94 µM (inactive); in [15] it was 12.6 µM (inactive); in [16] it was 8.41 µM (inactive); in [17], 2.62 µM (inactive); in test [18] it was 20.5 µM (inactive). The results for the GI50 in test [19] and in [20] were 6.37 µM (inactive) and 6.12 µM (inactive), respectively.

Consider `C/C(=N\c1cccc(Cl)c1)c1ccncc1`, for which the GI50 in test [1], in test [2], in test [3], in test [4], in test [5] and in test [6] was > 100 µM (inactive) throughout. Further, the GI50 in [7], in [8], in test [9], in [10], in test [11] and in test [12] was > 100 µM (inactive) each time. For the same compound, the GI50 in [13], in [14], in test [15], in test [16], in [17] and in [18] was > 100 µM (inactive) throughout. The results for the GI50 in test [19] and in test [20] were > 100 µM (inactive) and > 10 µM (inactive), respectively.
